According to patent publication US20180238860A1, “INDIVIDUAL METHOD PREDICTIVE OF THE DNA-BREAKING GENOTOXIC EFFECTS OF CHEMICAL OR BIOCHEMICAL AGENTS” (priority 2015, published 2018):

Tests used:
Assay type in all cases: cell-based, human
[1] = test system: 01PAU cells; test: Micronuclei per 100 cells 24 h after contacting, 01PAU
Protocol: (§1) In one embodiment, on receipt, the tissue sample (typically the biopsy) is established in the form of an amplifiable cell line without a viral or chemical transformation agent according to an ancillary procedure well known to culture laboratories, as underlined by the publication of Elkind et al. “The radiobiology of cultured mammalian cell”, Gordon and Breach (1967). Once the number of cells is sufficient (typically after 1 to 3 weeks), the first experiments are carried out using the process according to the invention. A cell sample is prepared: The cells are inoculated on glass coverslips in Petri dishes. A portion of these coverslips are contaminated with metals or pesticides or any other DNA-breaking chemical or biochemical agent at different concentrations. A further portion is not contaminated; it represents the spontaneous state. During contamination, the cells remain in the culture incubator at 37° C.
(§2) the cells are fixed in 3% paraformaldehyde and 2% sucrose for 15 minutes at ambient temperature and permeabilized in 20 mM HEPES buffer solution (4-(2-hydroxyethyl)-1-piperazine ethane sulfonic acid) at pH 7.4, 50 mM NaCl, 3 mM MgCl2, 300 mM sucrose, 0.5% Triton X-100 (a non-ionic surfactant having the formula t-Oct-C6H4-(OCH2CH2)×OH where x=9-10, CAS No. 9002-93-1, supplied for example by Sigma Aldrich) for 3 minutes. The glass coverslips are then washed in phosphate buffer saline (known as the acronym PBS) before immunological staining. The incubation took place for 40 min at 37° C. in PBS supplemented with 2% bovine serum albumin (known as the acronym BSA or fraction V, supplied for example by Sigma Aldrich) and was followed by a wash with PBS. Anti-pH2AX primary antibodies are used at a concentration of 1:800. The incubations with anti-mouse FITC or anti-rabbit TRITC secondary antibodies (1:100, supplied by Sigma Aldrich) were performed at 37° C. in 2% BSA for 20 minutes. Glass coverslips were treated with Vectashield™ containing DAPI (4,6-Diamidino-2-phenylindole) to label the nucleus. Staining with DAPI also makes it possible, indirectly, to determine the number of cells in phase G1 (nuclei with homogenous DAPI staining), in phase S (nuclei with numerous pH2AX foci), in phase G2 (nuclei with heterogeneous DAPI staining) and metaphases (visible chromosomes).
(§3) Counterstaining with DAPI (a DNA marker known to those skilled in the art) makes it possible to locate the nucleus to situate the cytoplasmic or nuclear location to quantify the micronuclei, which are complementary cell markers to the data on the foci.
(§4) The tables hereinafter summarize the results of numerous experiments which were carried out as described in the “Detailed description” section above. […]

[2] = test system: 01PAU cells; test: pH2AX foci 24 h after contacting, 01PAU
Protocol: as §1
(§5) For the contaminated cells, characteristics are acquired corresponding to the state after an incubation time with the DNA-breaking chemical or biochemical agent. Said characteristics are represented by foci corresponding to the marker pH2AX. The cells on glass coverslips are then fixed, lysed and hybridized. The following procedure, known per se (Bodgi et al, “A single formula to describe radiation-induced protein relocalization: towards a mathematical definition of individual radiosensitivity”, J Theor Biol. 21 p 333:135-45.2013):
(§6) the cells are fixed in 3% paraformaldehyde and 2% sucrose for 15 minutes at ambient temperature and permeabilized in 20 mM HEPES buffer solution (4-(2-hydroxyethyl)-1-piperazine ethane sulfonic acid) at pH 7.4, 50 mM NaCl, 3 mM MgCl2, 300 mM sucrose, 0.5% Triton X-100 (a non-ionic surfactant having the formula t-Oct-C6H4-(OCH2CH2)×OH where x=9-10, CAS No. 9002-93-1, supplied for example by Sigma Aldrich) for 3 minutes. The glass coverslips are then washed in phosphate buffer saline (known as the acronym PBS) before immunological staining. The incubation took place for 40 min at 37° C. in PBS supplemented with 2% bovine serum albumin (known as the acronym BSA or fraction V, supplied for example by Sigma Aldrich) and was followed by a wash with PBS. Anti-pH2AX primary antibodies are used at a concentration of 1:800. […]
(§7) The results are acquired using these coverslips on an immunofluorescence microscope (Olympus model for example). The reading may be direct (typically by counting the foci on at least 50 cells in G0/G1 for each point) or using dedicated image analysis software, or on an automated microscope; preferably the software or automated microscope methods are calibrated with manual determinations. […]

[3] = test system: 08HNG cells; test: pH2AX foci 24 h after contacting, 08HNG
Protocol: as §1, §5, §6, §7

[4] = test system: 08HNG cells; test: Micronuclei per 100 cells 24 h after contacting, 08HNG
Protocol: as §1, §2, §3, §4

Structure (SMILES)	Micronuclei ([1]; 0.3 μM)	Micronuclei ([1]; 1 μM)	Micronuclei ([1]; 5 μM)	Micronuclei ([1]; 10 μM)	pH2AX ([2]; 0.3 μM)	pH2AX ([2]; 1 μM)	pH2AX ([2]; 5 μM)	pH2AX ([2]; 10 μM)	pH2AX ([3]; 0.3 μM)	pH2AX ([3]; 1 μM)	pH2AX ([3]; 3 μM)	pH2AX ([3]; 10 μM)	Micronuclei ([4]; 0.3 μM)	Micronuclei ([4]; 1 μM)	Micronuclei ([4]; 3 μM)	Micronuclei ([4]; 10 μM)
CC1(C)C(C=C(Cl)Cl)C1C(=O)OCc1cccc(Oc2ccccc2)c1 (stereo not shown) [Permethrin]	2 per 100 cells	2 per 100 cells	4 per 100 cells	6 per 100 cells	0.1 foci	0.2 foci	1.3 foci	1.8 foci	–	–	–	–	–	–	–	–
c1ccc2[nH]c(-c3cscn3)nc2c1 [Thiobendazole]	–	–	–	–	–	–	–	–	1.8 foci	2 foci	4.3 foci	6 foci	2 per 100 cells	4 per 100 cells	10 per 100 cells	10 per 100 cells
